#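 GI50: concentration for 50% inhibition of growth. At the TGI there is no net growth.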
# Tests used:
# Assay in all cases: NCI anticancer screen, dose series, 384-well format
# [1] = test system: OVCAR-4 ovarian
# [2] = test system: HOP-92 NSCLC
# [3] = test system: RPMI-8226 leukemia
# [4] = test system: RXF 393 renal
# [5] = test system: HCT-15 colon
# [6] = test system: SNB-75 CNS
# [7] = test system: TK-10 renal
# [8] = test system: NCI-H226 lung
# [9] = test system: SF-268 CNS
# [10] = test system: SK-MEL-28 melanoma
# [11] = test system: NCI/ADR-RES ovarian
# [12] = test system: T-47D breast
# [13] = test system: SK-MEL-5 melanoma
# [14] = test system: NCI-H522 lung
# [15] = test system: OVCAR-3 ovarian
# [16] = test system: A549 NSCLC
# [17] = test system: MDA-MB-231 breast
# [18] = test system: UO-31 renal
# [19] = test system: MDA-MB-435 melanoma
# [20] = test system: UACC-257 melanoma
# [21] = test system: HOP-62 NSCLC
# [22] = test system: MDA-MB-468 breast
# [23] = test system: SNB-19 CNS
# [24] = test system: 786-0 renal
# [25] = test system: IGROV1 ovarian
# [26] = test system: PC-3 prostate
# [27] = test system: MOLT-4 leukemia
# [28] = test system: NCI-H460 NSCLC
# [29] = test system: UACC-62 melanoma
# [30] = test system: OVCAR-5 ovarian
# [31] = test system: SF-539 CNS
# [32] = test system: EKVX NSCLC
# [33] = test system: COLO 205 colon
# [34] = test system: HT29 colon
# [35] = test system: MALME-3M melanoma
# [36] = test system: NCI-H23 lung
# [37] = test system: ACHN renal
# [38] = test system: CAKI-1 renal
# [39] = test system: KM12 colon
# [40] = test system: HS 578T breast
# [41] = test system: K-562 leukemia
# [42] = test system: OVCAR-8 ovarian
# [43] = test system: NCI-H322M lung
# [44] = test system: M14 melanoma
# [45] = test system: HL-60(TB) leukemia
# [46] = test system: LOX IMVI melanoma
# [47] = test system: SN12C renal
# [48] = test system: SR leukemia
# [49] = test system: SK-OV-3 ovarian
# [50] = test system: BT-549 breast
# [51] = test system: HCC-2998 colon
# [52] = test system: DU-145 prostate
# [53] = test system: SF-295 CNS
# [54] = test system: MCF7 breast
# [55] = test system: A498 renal
# [56] = test system: SW-620 colon
# [57] = test system: HCT-116 colon
# [58] = test system: U251 glioblastoma
smiles,measurement,setting,value
C=CC(=O)N1CC[C@H](n2nc(C#Cc3cc(OC)cc(OC)c3)c3c(N)ncnc32)C1,GI50,[1],2020 nM
same,TGI,[1],25600 nM
same,GI50,[2],2520 nM
same,TGI,[2],14200 nM
same,GI50,[3],1530 nM
same,TGI,[3],4410 nM
same,GI50,[4],6720 nM
same,TGI,[4],66400 nM
same,GI50,[5],4460 nM
same,TGI,[5],25600 nM
same,GI50,[6],1440 nM
same,TGI,[6],10700 nM
same,GI50,[7],5660 nM
same,TGI,[7],71700 nM
same,GI50,[8],12700 nM
same,TGI,[8],> 100000 nM
same,GI50,[9],9330 nM
same,TGI,[9],75000 nM
same,GI50,[10],17700 nM
same,TGI,[10],91200 nM
same,GI50,[11],11100 nM
same,TGI,[11],44300 nM
same,GI50,[12],3290 nM
same,TGI,[12],52600 nM
same,GI50,[13],5050 nM
same,TGI,[13],18900 nM
same,GI50,[14],4390 nM
same,TGI,[14],14200 nM
same,GI50,[15],3450 nM
same,TGI,[15],17600 nM
same,GI50,[16],12700 nM
same,TGI,[16],> 100000 nM
same,GI50,[17],4030 nM
same,TGI,[17],68200 nM
same,GI50,[18],17600 nM
same,TGI,[18],> 100000 nM
same,GI50,[19],31100 nM
same,TGI,[19],> 100000 nM
same,GI50,[20],2860 nM
same,TGI,[20],8350 nM
same,GI50,[21],6440 nM
same,TGI,[21],> 100000 nM
same,GI50,[22],2090 nM
same,TGI,[22],4530 nM
same,GI50,[23],12600 nM
same,TGI,[23],> 100000 nM
same,GI50,[24],2960 nM
same,TGI,[24],19100 nM
same,GI50,[25],4930 nM
same,TGI,[25],20700 nM
same,GI50,[26],20100 nM
same,TGI,[26],> 100000 nM
same,GI50,[27],2470 nM
same,TGI,[27],5060 nM
same,GI50,[28],12000 nM
same,TGI,[28],> 100000 nM
same,GI50,[29],5780 nM
same,TGI,[29],30500 nM
same,GI50,[30],49400 nM
same,TGI,[30],> 100000 nM
same,GI50,[31],4520 nM
same,TGI,[31],20600 nM
same,GI50,[32],13400 nM
same,TGI,[32],98900 nM
same,GI50,[33],30000 nM
same,TGI,[33],> 100000 nM
same,GI50,[34],17500 nM
same,TGI,[34],> 100000 nM
same,GI50,[35],7390 nM
same,TGI,[35],31400 nM
same,GI50,[36],10500 nM
same,TGI,[36],28600 nM
same,GI50,[37],6800 nM
same,TGI,[37],72900 nM
same,GI50,[38],4440 nM
same,TGI,[38],> 100000 nM
same,GI50,[39],10200 nM
same,TGI,[39],42100 nM
same,GI50,[40],2740 nM
same,TGI,[40],11500 nM
same,GI50,[41],12000 nM
same,TGI,[41],> 100000 nM
same,GI50,[42],15900 nM
same,TGI,[42],72300 nM
same,GI50,[43],11500 nM
same,TGI,[43],> 100000 nM
same,GI50,[44],16900 nM
same,TGI,[44],69800 nM
same,GI50,[45],4600 nM
same,TGI,[45],16000 nM
same,GI50,[46],6090 nM
same,TGI,[46],22100 nM
same,GI50,[47],3640 nM
same,TGI,[47],33900 nM
same,GI50,[48],3110 nM
same,TGI,[48],13000 nM
same,GI50,[49],5240 nM
same,TGI,[49],41500 nM
same,GI50,[50],1510 nM
same,TGI,[50],12200 nM
same,GI50,[51],2980 nM
same,TGI,[51],11000 nM
same,GI50,[52],9040 nM
same,TGI,[52],> 100000 nM
same,GI50,[53],25500 nM
same,TGI,[53],> 100000 nM
same,GI50,[54],4340 nM
same,TGI,[54],> 100000 nM
same,GI50,[55],2730 nM
same,TGI,[55],18200 nM
same,GI50,[56],13200 nM
same,TGI,[56],32600 nM
CN(C)Cc1c(C(=O)NCCOc2ccc(C(=O)NO)cc2)oc2ccccc12,GI50,[1],213 nM
same,TGI,[1],495 nM
same,GI50,[2],310 nM
same,TGI,[2],1330 nM
same,GI50,[3],11.9 nM
same,TGI,[3],26.2 nM
same,GI50,[4],291 nM
same,TGI,[4],1130 nM
same,GI50,[5],480 nM
same,TGI,[5],2010 nM
same,GI50,[6],310 nM
same,TGI,[6],2820 nM
same,GI50,[7],184 nM
same,TGI,[7],475 nM
same,GI50,[8],376 nM
same,TGI,[8],1600 nM
same,GI50,[9],197 nM
same,TGI,[9],604 nM
same,GI50,[10],171 nM
same,TGI,[10],561 nM
same,GI50,[11],387 nM
same,TGI,[11],1840 nM
same,GI50,[12],136 nM
same,TGI,[12],300 nM
same,GI50,[13],132 nM
same,TGI,[13],278 nM
same,GI50,[14],71.3 nM
same,TGI,[14],571 nM
same,GI50,[15],176 nM
same,TGI,[15],626 nM
same,GI50,[16],313 nM
same,TGI,[16],1240 nM
same,GI50,[17],248 nM
same,TGI,[17],811 nM
same,GI50,[57],92.3 nM
same,TGI,[57],479 nM
same,GI50,[19],201 nM
same,TGI,[19],401 nM
same,GI50,[20],43.2 nM
same,TGI,[20],194 nM
same,GI50,[21],170 nM
same,TGI,[21],690 nM
same,GI50,[22],130 nM
same,TGI,[22],457 nM
same,GI50,[23],322 nM
same,TGI,[23],1120 nM
same,GI50,[25],111 nM
same,TGI,[25],324 nM
same,GI50,[26],165 nM
same,TGI,[26],439 nM
same,GI50,[27],42.2 nM
same,TGI,[27],143 nM
same,GI50,[28],135 nM
same,TGI,[28],1040 nM
same,GI50,[29],112 nM
same,TGI,[29],256 nM
same,GI50,[30],57.7 nM
same,TGI,[30],212 nM
same,GI50,[31],285 nM
same,TGI,[31],2100 nM
same,GI50,[32],403 nM
same,TGI,[32],3110 nM
same,GI50,[33],158 nM
same,TGI,[33],319 nM
same,GI50,[34],219 nM
same,TGI,[34],943 nM
same,GI50,[35],87.6 nM
same,TGI,[35],330 nM
same,GI50,[36],267 nM
same,TGI,[36],1370 nM
same,GI50,[37],221 nM
same,TGI,[37],578 nM
same,GI50,[38],316 nM
same,TGI,[38],1100 nM
same,GI50,[39],311 nM
same,TGI,[39],1700 nM
same,GI50,[40],145 nM
same,TGI,[40],385 nM
same,GI50,[58],155 nM
same,TGI,[58],332 nM
same,GI50,[42],46.9 nM
same,TGI,[42],1130 nM
same,GI50,[43],180 nM
same,TGI,[43],713 nM
same,GI50,[44],250 nM
same,TGI,[44],1080 nM
same,GI50,[45],56.9 nM
same,TGI,[45],148 nM
same,GI50,[46],170 nM
same,TGI,[46],320 nM
same,GI50,[47],130 nM
same,TGI,[47],392 nM
same,GI50,[48],31.7 nM
same,TGI,[48],136 nM
same,GI50,[49],175 nM
same,TGI,[49],745 nM
same,GI50,[50],264 nM
same,TGI,[50],1350 nM
same,GI50,[51],109 nM
same,TGI,[51],362 nM
same,GI50,[52],118 nM
same,TGI,[52],320 nM
same,GI50,[53],161 nM
same,TGI,[53],335 nM
same,GI50,[54],133 nM
same,TGI,[54],510 nM
same,GI50,[55],187 nM
same,TGI,[55],658 nM
